In patent publication US7598067B2, “PDEs and uses thereof” (priority 2000, dated 2009):
“And” between values parts separate entries of the source, which are not always exact repeats. Identical values can stand only once. Like-named read-outs stand apart in the source and are kept apart here.

What was measured:
TbPDE2A [1] = target: T1, TbPDE2A (Trypanosoma brucei, UniProt Q9GTN9); assay: Phosphodiesterase assay, recombinant TbPDE2A in yeast lysates; assay type: biochemical; details: for effect on TbPDE2A activity in initial screening: 100 μM inhibitor, FIG. 26; for effect on TbPDE2A activity in initial screening / IC50 / IC50 for TbPDE2A (μM): 1 μM cAMP; for IC50 / IC50 for TbPDE2A (μM): full-size TbPDE2A, yeast lysates
Protocol: Yeast cell lysis. Yeast cells grown to mid- to end-log phase in SC-leu medium were collected, resuspended quickly in an original volume of prewarmed YPD medium and incubated for an additional 3 h at 30° C. in order to maximize protein expression. Cells were then harvested, washed once in water and once in HBBB buffer (Hank's balanced salt solution, containing 50 mM HEPES, pH 7.5). The washed cell pellet was suspended in an equal volume of HBB containing a protease inhibitor cocktail (Complete™, Roche Molecular Biochemicals). […] The cell lysate was clarified by centrifugation for 15 min at 15,000×g.
Phosphodiesterase Assay. […] […] Incubation was at 30° C. for 20 min. […] The precipitates were filtered through GF-C glass fiber fitters and filters were washed 3 times with ice-cold 1 mM NaOH/100 mM NaCl and were then dried and counted in liquid scintillation fluid (4 g/I omnifluor in toluene). All assays were carried out in triplicates and with three independent enzyme preparations. Controls for the efficiency of precipitation of cAMP and of AMP were always included. When assaying yeast cell extracts, control lysates from the PDE deletion strains transfected with empty vector was used as a background control. […] Inhibitors were dissolved in DMSO or ethanol, and the final concentration of the solvent never exceeded 1% in the assays reaction. Incubation times and enzyme concentrations were always adjusted so that less than 30% of the input substrate was hydrolyzed (2-5 μg total protein/100 μl assay). IC50 values were calculated by curve fitting on a four parameter dose-response model with variable slope, using the Prism software package of Graph Pad Inc., San Diego, Calif.

TbPDE2B = TbPDE2B (Trypanosoma brucei, UniProt Q9GQU6); assay: Phosphodiesterase assay, recombinant TbPDE2B expressed in HEK 293 cells; assay type: biochemical; details: for inhibition of recombinant TbPDE2B, in words: 1 μM [3H] cAMP, cGMP up to 200 μM
Protocol: Expression of T. brucei PDE. The ORF sequence for T. brucei PDE was subcloned into the pcDNA 3.1-TOPO vector (Invitrogen) according to the manual (Eukaryotic TOPO TA Cloning, version C) and plasmid DNA purified as described above. Human embryonic kidney 293 (HEK 293) cells were transfected with 12 μg of DNA in 60 μl of GenePORTER Transfection Reagent (Gene Therapy Systems, San Diego, Calif.) in 100-mm dishes and kept at 37° C. in 5% CO2 for 24 h. After this period fresh medium was added, and incubated under the same conditions for an additional 24 h. The same amount of pcDNA vector containing the sequence for the Green Fluorescent Protein (GFP) was transfected under identical conditions as a positive control for expression and as a negative control for PDE activity. Two plates were harvested at a time and homogenized with 1 ml of homogenization buffer containing 40 mM Tris-HCl, pH 7.5; 15 mM benzamidine; 15 mM 2-mercaptoethanol; 1 μg/ml pepstatin A; 1 μg/ml leupeptin and 5 mM EDTA. The cell suspension was immediately subjected to sonication (3×5 s) on ice. One volume of glycerol and 1 mg/ml of bovine serum albumin were added immediately to the homogenate.
Phosphodiesterase assay. […]

[2] = system: total PDE activity of trypanosomal cell extracts; assay: Total PDE activity in trypanosomal cell extracts; assay type: biochemical, Trypanosoma brucei
Text: Chemical validation of the TbPDE2 family as a potential drug target. One of the novel PDEs of the invention, TbPDE2A, was expressed as a recombinant protein and was characterized in detail (see above). […].

PDE7A = assay: RT-PCR of PDE7A upregulation in CD3/CD28-stimulated CD4+ T cells; assay type: cell-based, human; details: 1 hour after stimulation; FIG. 2C
PDE8A = assay: RT-PCR of PDE8A upregulation in CD3/CD28-stimulated CD4+ T cells; assay type: cell-based, human; details: after CD3 and CD28 stimulation; FIG. 2C, 2D
Protocol: Peripheral blood mononuclear cells were isolated from one human buffy coat (50 mL) by centrifugation through a layer of Ficoll-Paque Plus (2000 rpm, 30 min). Cells from the interface were removed and further purified by negative selection. CD4^+ T cells were usually isolated using a mixture of monoclonal antibodies (CD8, CD16, CD20, CD25 and HLADr) and goat anti-mouse IgG conjugated to magnetic beads according to the manufacturers protocol (Dynal, Lake Success, N.Y.). In some cases the CD4^+ T cell isolation kit was used in combination with the CD69 microbead kit (to remove activated cells). The labeled cells were removed by passage through a CS column (Miltenyi Biotec, Auburn, Calif.) placed in a magnetic field. The CD4^+ T cells passing through the column (at least 98% pure as determined by FACS analysis) were resuspended in RPMI/10% FBS/pen/strep/glutamine medium. The cells were stimulated as follows. Plates (Corning, Acton, Mass.) were precoated with goat anti-mouse IgG (10 μg/mL) for 2 hours at 37° C. and then washed with PBS. Cells were added to the plate together with CD3 (0.01 μg/mL) and CD28 (0.1 ug/mL) monoclonal antibodies and were harvested at various time points. The presence of PDE8A protein and RNA in activated CD4^+ T cells was detected by Western blotting and RT-PCR (see example 3). […]

PDEs (Non-selective) = details: read-out: PDE Selectivity (IC50); cited from earlier work
[3] = system: endogenous PDE activity from the HEK 293 cells; assay: Endogenous PDE activity from HEK 293 cells; assay type: biochemical, human; details: lowest concentration used (10 μM)
Text: Phosphodiesterase assay. […] […]

PDE 4 = details: read-out: PDE Selectivity (IC50); cited from earlier work
[4] = system: PDE8A and PDE7A from hut78 cells; assay: PDE activity of monoQ HPLC fractions of hut78 cells, low Km peak; assay type: biochemical, human; details: 0.01 μM cAMP; 10 μM rolipram or 100 μM IBMX
Protocol: Since pure CD4^+ T cells can only be obtained in limited quantities, a human CD4^+ T cell line, hut78, (ATCC, Manassas, Va.), was used to study the activity of PDE8A. Hut78 cells (2×10^8) were resuspended in 20 mM Tris pH 7.5 buffer containing protease inhibitors (Boehringer Mannheim, Indianapolis, Ind.) and sonicated. The supernatant was removed after centrifugation at 15000×g for 10 minutes and applied to a Mono Q column attached to a Rainin Dynamax HPLC system (Ameryville, Calif.). A NaCl gradient (0-0.8M) was passed through the column and 250 uL fractions were collected. The fractions were assayed for activity using either 1 μM or 0.01 μM cAMP as substrate and the indicated concentration of inhibitor (FIG. 5). Western blot analysis was also performed (10 μL/well) using PDE7A or 8A antibodies.

TbPDE2A [5] = target: T1, TbPDE2A; details: Table 2, from reference; cited from earlier work
PDE 6 = details: read-out: PDE Selectivity (IC50); cited from earlier work

T1 sequence (Q9GTN9 entry or part of it): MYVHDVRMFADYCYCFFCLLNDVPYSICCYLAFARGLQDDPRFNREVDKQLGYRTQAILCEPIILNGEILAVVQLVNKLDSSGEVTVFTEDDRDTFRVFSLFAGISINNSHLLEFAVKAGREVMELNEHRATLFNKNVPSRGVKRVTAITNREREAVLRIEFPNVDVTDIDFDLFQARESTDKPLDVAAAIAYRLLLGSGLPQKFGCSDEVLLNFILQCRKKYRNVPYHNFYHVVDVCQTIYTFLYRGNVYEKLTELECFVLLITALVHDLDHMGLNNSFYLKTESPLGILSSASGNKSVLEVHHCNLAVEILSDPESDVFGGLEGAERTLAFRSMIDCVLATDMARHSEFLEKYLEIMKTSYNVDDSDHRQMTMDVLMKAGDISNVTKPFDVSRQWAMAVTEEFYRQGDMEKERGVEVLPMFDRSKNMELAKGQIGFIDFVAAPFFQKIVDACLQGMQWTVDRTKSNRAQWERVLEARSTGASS
Sequence of TbPDE2B (Q9GQU6 entry or part of it): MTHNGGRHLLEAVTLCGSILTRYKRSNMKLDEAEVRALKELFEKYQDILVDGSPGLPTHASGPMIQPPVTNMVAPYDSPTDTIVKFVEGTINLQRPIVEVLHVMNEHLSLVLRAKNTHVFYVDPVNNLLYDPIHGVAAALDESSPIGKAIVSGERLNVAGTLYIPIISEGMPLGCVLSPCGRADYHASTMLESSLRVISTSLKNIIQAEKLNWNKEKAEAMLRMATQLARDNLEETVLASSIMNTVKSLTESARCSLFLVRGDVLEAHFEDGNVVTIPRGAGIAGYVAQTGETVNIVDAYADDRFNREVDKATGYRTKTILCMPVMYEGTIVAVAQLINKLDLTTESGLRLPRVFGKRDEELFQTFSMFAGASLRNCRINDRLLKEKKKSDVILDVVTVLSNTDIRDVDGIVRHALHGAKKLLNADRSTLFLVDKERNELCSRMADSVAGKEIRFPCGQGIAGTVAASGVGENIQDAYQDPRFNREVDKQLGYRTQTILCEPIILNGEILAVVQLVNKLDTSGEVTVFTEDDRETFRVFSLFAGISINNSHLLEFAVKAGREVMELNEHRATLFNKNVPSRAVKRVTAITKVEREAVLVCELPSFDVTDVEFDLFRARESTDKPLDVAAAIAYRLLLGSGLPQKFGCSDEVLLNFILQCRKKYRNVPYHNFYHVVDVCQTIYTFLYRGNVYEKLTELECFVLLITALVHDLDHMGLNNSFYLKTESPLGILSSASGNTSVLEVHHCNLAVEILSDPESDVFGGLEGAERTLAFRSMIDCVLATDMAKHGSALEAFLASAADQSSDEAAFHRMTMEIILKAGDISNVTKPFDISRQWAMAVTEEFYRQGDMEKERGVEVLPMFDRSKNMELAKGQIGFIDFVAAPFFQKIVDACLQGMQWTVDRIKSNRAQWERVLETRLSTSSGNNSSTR

Row | Molecule | effect on TbPDE2A activity in initial screening (TbPDE2A [1]) | IC50 (TbPDE2A [1]) | IC50 (TbPDE2B) [µM] | inhibition of recombinant TbPDE2B, in words (TbPDE2B) | further results
1 | COCc1nc2c([nH]1)c(=O)n(C)c(=O)n2CC(C)C [8-methoxymethyl-IBMX] | only very little effect |  |  |  | 
2 | CN(C(=O)CCCOc1ccc2[nH]c(=O)ccc2c1)C1CCCCC1 [Cilostamide, cilostamide] | only very little effect | > 100 µM |  |  | 
3 | CCCCCCC(C(C)O)n1cnc2c(N)ncnc21 (stereo not drawn) [EHNA, erythro-9-[3-(2-hydroxynonyl)]-adenine] |  |  | > 180 | No IC50 could be obtained | 
4 | CCOC(=O)c1cnc2c(cnn2CC)c1NN=C(C)C [Etazolate, etazolate] |  | 30.3 µM | 127 |  | 
5 | CCOc1ccc(Cc2nccc3cc(OCC)c(OCC)cc23)cc1OCC [Ethaverine] | significantly more effective as an inhibitor of TbPDE2A than its parent compound papaverine | 14 µM and 14.2 µM |  |  | total PDE activity [2]: marked, if not complete, reduction; IC50 for TbPDE2A (μM) (TbPDE2A [1]): low micromolar range
6 | CC(C)(C)n1nc(-c2ccc(Cl)cc2)c2c(N)ncnc21 [PP2] |  |  |  |  | PDE7A upregulation (PDE7A): reduction of PDE7A upregulation; PDE8A upregulation (PDE8A): greatly reduced
7 | COc1ccc(Cc2nccc3cc(OC)c(OC)cc23)cc1OC [Papaverine, papaverine] |  |  | 304 ± 19 | extremely low sensitivity | IC50 (PDEs (Non-selective)): 5 to 25 µM; effectiveness on TbPDE2A, in words (TbPDE2A [1]): only marginal activity
8 | CC(=O)CCCCn1c(=O)c2c(ncn2C)n(C)c1=O [Pentoxifylline, pentoxifylline] |  |  | > 800 | extremely low sensitivity | IC50 (PDEs (Non-selective)): 45 to 150 µM
9 | COc1ccc(C2CNC(=O)C2)cc1OC1CCCC1 (stereo not drawn) [Rolipram, rolipram] | no appreciable activity | > 100 µM | > 300 | No inhibition | endogenous PDE activity from the HEK 293 cells [3]: completely abolished; IC50 (PDE 4): […]; sensitivity of the PDE activity peak [4]: resistant; IC50 (TbPDE2A [5]): > 100 µM
10 | CCCc1nn(C)c2c(=O)[nH]c(-c3cc(S(=O)(=O)N4CCN(C)CC4)ccc3OCC)nc12 [Sildenafil, sildenafil] |  | 9.4 µM | > 100 | No IC50 could be obtained | total PDE activity [2]: marked, if not complete, reduction; IC50 for TbPDE2A (μM) (TbPDE2A [1]): low micromolar range
11 | Cn1c(=O)c2[nH]cnc2n(C)c1=O [Theophylline, theophylline] |  | > 100 µM |  |  | effectiveness on TbPDE2A, in words (TbPDE2A [1]): not effective
12 | COc1cc2c(cc1OC)-c1c/c(=N\c3c(C)cc(C)cc3C)n(C)c(=O)n1CC2 [Trequinsin] |  | 5.4 µM |  |  | total PDE activity [2]: marked, if not complete, reduction; IC50 for TbPDE2A (μM) (TbPDE2A [1]): low micromolar range
13 | CCOC(=O)C1=C[C@]2(CC)CCCN3CCc4c(n1c1ccccc41)[C@@H]32 [Vinpocetine, vinpocetine] | only very little effect | > 100 µM |  |  | 
14 | CCCOc1ccccc1-c1nc2nn[nH]c2c(=O)[nH]1 [Zaprinast, zaprinast] | only very little effect | 42.4 µM | > 50 | No IC50 could be obtained | IC50 (PDE 6): 0.15 µM; IC50 (TbPDE2A [5]): 42.5 µM
15 | Cc1[nH]c(=O)c(C#N)cc1-c1ccncc1 [milrinone] | only very little effect |  |  |  | 
16 | Ro 20-1724 |  |  |  | No inhibition | endogenous PDE activity from the HEK 293 cells [3]: completely abolished; IC50 (PDE 4): 2 µM; IC50 (TbPDE2B; Substrate concentration 1 μM [3H]-cAMP, read-out: TbPDE2B IC50 (μM) (n = 3)): > 300 µM
